Assay results: patent US20050090529A1, “3,5 Disubstituted indazole compounds with nitrogen-bearing 5-membered heterocycles, pharmaceutical compositions, and methods for mediating or inhibiting cell proliferation” (PFIZER INC, priority 2003, published 2005)
Values after ≈ are worked out from the molar mass of the structure shown.

Assays:
[1] = biological target: T1, CDK2/Cyclin A (Homo sapiens, UniProt P24941); assay: Inhibition of CDK2/Cyclin A retinoblastoma kinase activity (apparent Ki); type: biochemical; conditions: read-out: CDK2 Ki
T1 construct: made in house; host or cells: CDK2: insect cells (baculovirus); cyclin A: E. coli
Procedure: Cyclin-dependent kinase activity was measured by quantifying the enzyme-catalyzed, time-dependent incorporation of radioactive phosphate from [^32P]ATP or [^33P]ATP into a protein substrate. […] Reactions were initiated with enzyme, incubated at 30° C., and terminated after 20 minutes by the addition of ethylenediaminetetraacetic acid (EDTA) to 250 mM. […] Radioactivity was quantified by exposing the dried membranes to a phosphorimager.
Apparent Ki values were measured by assaying enzyme activity in the presence of different inhibitor compound concentrations and subtracting the background radioactivity measured in the absence of enzyme. Inhibition data were fit to an equation for competitive inhibition using Kaleidagraph (Synergy Software), or were fit to an equation for competitive tight-binding inhibition using the software KineTic (BioKin, Ltd.).
A complex of CDK2 and proteolyzed cyclin A was prepared and purified by gel filtration. […] Ki values were measured as described above.

[2] = Measurement of kinetic solubility; conditions: 100 mM sodium phosphate buffer, pH 6.5, aqueous buffer, kinetic from dmso stock
Procedure: Kinetic solubility was determined with a […] stock solution from the compound(s) of interest. […] Samples and standards were then centrifuged and an aliquot was removed for HPLC analysis. Samples and standards were analyzed by HPLC and a final concentration for the sample was determined based on a one-point calibration curve from the corresponding standard. Results were reported as μg's/mL.

Row | Ki [1] [nM] | solubility [2] [µg/mL] | Compound
1 | < 50 | > 120 | CCNCc1cncc(-c2ccc3[nH]nc(-c4ncc[nH]4)c3c2)c1C [Example 1, 5-(5-ethylaminomethyl-4-methylpyridin-3-yl)-3-(1H-imidazol-2-yl)-1H-indazole]
2 | 50 to 200 | 20 to 120 (≈ 39.2 to 235 µM) | CCNCc1cncc(-c2ccc3[nH]nc(-c4nc(-c5ccccc5)c(C(=O)NCCOC)[nH]4)c3c2)c1C [Example 3, 2-[5-(5-Ethylaminomethyl-4-methyl-pyridin-3-yl)-1H-indazol-3-yl]-5-phenyl-3H-imidazol-4-carboxylic acid (2-methoxy-ethyl)-amide]
3 | 50 to 200 | 20 to 120 (≈ 39.6 to 237 µM) | CCNCc1cncc(-c2ccc3[nH]nc(-c4nc(-c5ccccc5)c(C(=O)N5CCCC5)[nH]4)c3c2)c1C [Example 4, {2-[5-(5-Ethylaminomethyl-4-methyl-pyridin-3-yl)-1H-indazol-3-yl]-5-phenyl-3H-imidazol-4-yl}-pyrrolidin-1-yl-methanone]
4 | 50 to 200 | 20 to 120 (≈ 38.5 to 231 µM) | CCNCc1cncc(-c2ccc3[nH]nc(-c4nc(-c5ccccc5)c(C(=O)NC5CCCC5)[nH]4)c3c2)c1C [Example 8, 2-[5-(5-Ethylaminomethyl-4-methyl-pyridin-3-yl)-1H-indazol-3-yl]-5-phenyl-3H-imidazole-4-carboxylic acid cyclopentylamide]
5 | > 200 | 20 to 120 (≈ 38.3 to 230 µM) | CCNCc1cncc(-c2ccc3[nH]nc(-c4nc(-c5ccccc5)c(C(=O)N5CCOCC5)[nH]4)c3c2)c1C [Example 10, {2-[5-(5-Ethylaminomethyl-4-methyl-pyridin-3-yl)-1H-indazol-3-yl]-5-phenyl-3H-imidazol-4-yl}-morpholin-4-yl-methanone]
6 | > 200 | 20 to 120 (≈ 36.5 to 219 µM) | CCNCc1cncc(-c2ccc3[nH]nc(-c4nc(-c5ccccc5)c(C(=O)N(C)C5CCCCC5)[nH]4)c3c2)c1C [Example 13, 2-[5-(5-Ethylaminomethyl-4-methyl-pyridin-3-yl)-1H-indazol-3-yl]-5-phenyl-3H-imidazole-4-carboxylic acid cyclohexyl-methyl-amide]
7 | > 200 | > 120 | CCNCc1cncc(-c2ccc3[nH]nc(-c4nc(-c5ccccc5)c(C(=O)N5CCC[C@@H]5COC)[nH]4)c3c2)c1C [Example 15, {2-[5-(5-Ethylaminomethyl-4-methyl-pyridin-3-yl)-1H-indazol-3-yl]-5-phenyl-3H-imidazol-4-yl}-(2-methoxymethyl-pyrrolidin-1-yl)-methanone]
8 | < 50 | 20 to 120 (≈ 51.5 to 309 µM) | CCCc1nc(-c2n[nH]c3ccc(-c4cncc(CNCC)c4C)cc23)[nH]c1C [Example 19, Ethyl-{4-methyl-5-[3-(5-methyl-4-propyl-1H-imidazol-2-yl)-1H-indazol-5-yl]-pyridin-3-ylmethyl}-amine]
9 | < 50 | 20 to 120 (≈ 49.7 to 298 µM) | CCNCc1cncc(-c2ccc3[nH]nc(-c4nc(CC(C)C)c(C)[nH]4)c3c2)c1C [Example 20, Ethyl-{5-[3-(4-isobutyl-5-methyl-1H-imidazol-2-yl)-1H-indazol-5-yl]-4-methyl-pyridin-3-ylmethyl}-amine]
10 | < 50 | – | CCNCc1cncc(-c2ccc3[nH]nc(-c4ncc(C(=O)N5CCN(CCOC)CC5)[nH]4)c3c2)c1C [Example 78, N-({5-[3-(5-{[4-(2-methoxyethyl)piperazin-1-yl]carbonyl}-1H-imidazol-2-yl)-1H-indazol-5-yl]-4-methylpyridin-3-yl}methyl)ethanamine]
11 | 50 to 200 | – | CCNCc1cncc(-c2ccc3[nH]nc(-c4ncc(C(=O)N(C)C5CCN(C)C5)[nH]4)c3c2)c1C (centres unmarked) [Example 84, 2-(5-{5-[(ethylamino)methyl]-4-methylpyridin-3-yl}-1H-indazol-3-yl)-N-methyl-N-(1-methylpyrrolidin-3-yl)-1H-imidazole-5-carboxamide]
12 | > 200 | – | CCNCc1cncc(-c2ccc3[nH]nc(-c4ocnc4C)c3c2)c1C [Example 88, N-({4-methyl-5-[3-(4-methyl-1,3-oxazol-5-yl)-1H-indazol-5-yl]pyridin-3-yl}methyl)ethanamine]
13 | < 50 | – | CCNCc1cncc(-c2ccc3[nH]nc(-c4cc(C)n[nH]4)c3c2)c1C [Example 89, Ethyl-{4-methyl-5-[3-(5-methyl-2H-pyrazol-3-yl)-1H-indazol-5-yl]-pyridin-3-ylmethyl}-amine]
14 | > 200 | – | CCNCc1cncc(-c2ccc3[nH]nc(-c4nnn[nH]4)c3c2)c1C [Example 91, Ethyl-{4-methyl-5-[3-(1H-tetrazol-5-yl)-1H-indazol-5-yl]-pyridin-3-ylmethyl}-amine]
15 | < 50 | – | CNCc1cncc(-c2ccc3[nH]nc(-c4nc(C)c[nH]4)c3c2)c1C [Example 93, N-methyl-1-{4-methyl-5-[3-(4-methyl-1H-imidazol-2-yl)-1H-indazol-5-yl]pyridin-3-yl}methanamine]

The remaining lines, values behind:

Row | Compound | Ki [1] [nM] | solubility [2] [µg/mL]
16 | CCNCc1cncc(-c2ccc3[nH]nc(-c4nc(C(=O)NC5CN6CCC5CC6)c[nH]4)c3c2)c1C (stereo in doubt) [Example 73, N-[(3S)-1-azabicyclo[2.2.2]oct-3-yl]-2-(5-{5-[(ethylamino)methyl]-4-methylpyridin-3-yl}-1H-indazol-3-yl)-1H-imidazole-5-carboxamide] | 50 to 200 | > 120
17 | CCNCc1cncc(-c2ccc3[nH]nc(-c4nc(-c5ccccc5)c(C(=O)NCC)[nH]4)c3c2)c1C [Example 2, 2-[5-(5-Ethylaminomethyl-4-methyl-pyridin-3-yl)-1H-indazol-3-yl]-5-phenyl-3H-imidazole-4-carboxylic acid ethylamide] | 50 to 200 | 20 to 120 (≈ 41.7 to 250 µM)
18 | CCNCc1cncc(-c2ccc3[nH]nc(-c4nc(-c5ccccc5)c(C(=O)NCc5ccccc5)[nH]4)c3c2)c1C [Example 5, 2-[5-(5-Ethylaminomethyl-4-methyl-pyridin-3-yl)-1H-indazol-3-yl]-5-phenyl-3H-imidazole-4-carboxylic acid benzylamide] | < 50 | 20 to 120 (≈ 36.9 to 222 µM)
19 | CCNCc1cncc(-c2ccc3[nH]nc(-c4nc(-c5ccccc5)c(C(=O)NCC(C)C)[nH]4)c3c2)c1C [Example 7, 2-[5-(5-Ethylaminomethyl-4-methyl-pyridin-3-yl)-1H-indazol-3-yl]-5-phenyl-3H-imidazole-4-carboxylic acid isobutyl-amide] | 50 to 200 | 20 to 120 (≈ 39.4 to 236 µM)
20 | CCNCc1cncc(-c2ccc3[nH]nc(-c4nc(-c5ccccc5)c(C(=O)N5CCCCC5)[nH]4)c3c2)c1C [Example 9, {2-[5-(5-Ethylaminomethyl-4-methyl-pyridin-3-yl)-1H-indazol-3-yl]-5-phenyl-3H-imidazol-4-yl}-piperidin-1-yl-methanone] | > 200 | 20 to 120 (≈ 38.5 to 231 µM)
21 | CCNCc1cncc(-c2ccc3[nH]nc(-c4nc(-c5ccccc5)c(C(=O)NCCCOC)[nH]4)c3c2)c1C [Example 11, 2-[5-(5-Ethylaminomethyl-4-methyl-pyridin-3-yl)-1H-indazol-3-yl]-5-phenyl-3H-imidazole-4-carboxylic acid (3-methoxy-propyl)-amide] | 50 to 200 | > 120
22 | CCNCc1cncc(-c2ccc3[nH]nc(-c4nc(-c5ccccc5)c(C(=O)N5CCC[C@H]5COC)[nH]4)c3c2)c1C [Example 14, {2-[5-(5-Ethylaminomethyl-4-methyl-pyridin-3-yl)-1H-indazol-3-yl]-5-phenyl-3H-imidazol-4-yl}-(2-methoxymethyl-pyrrolidin-1-yl)-methanone] | > 200 | > 120
23 | CCNCc1cncc(-c2ccc3[nH]nc(-c4ncc(C(=O)N5CCC(Oc6ccccc6)CC5)[nH]4)c3c2)c1C [Example 70, N-{[4-methyl-5-(3-{5-[(4-phenoxypiperidin-1-yl)carbonyl]-1H-imidazol-2-yl}-1H-indazol-5-yl)pyridin-3-yl]methyl}ethanamine] | < 50 | –
24 | CCNCc1cncc(-c2ccc3[nH]nc(-c4ncc(C(=O)N5CCCC(Cc6ncccn6)CC5)[nH]4)c3c2)c1C (centres unmarked) [Example 79, N-({4-methyl-5-[3-(5-{[4-(pyrimidin-2-ylmethyl)azepan-1-yl]carbonyl}-1H-imidazol-2-yl)-1H-indazol-5-yl]pyridin-3-yl}methyl)ethanamine] | < 50 | –
25 | CCNCc1cncc(-c2ccc3[nH]nc(-c4ncc(C(=O)NCCC5=CCCCC5)[nH]4)c3c2)c1C [Example 80, N-(2-cyclohex-1-en-1-ylethyl)-2-(5-{5-[(ethylamino)methyl]-4-methylpyridin-3-yl}-1H-indazol-3-yl)-1H-imidazole-5-carboxamide] | < 50 | –
26 | CCNCc1cncc(-c2ccc3[nH]nc(-c4ncc(C(=O)N(CCN(C)C)Cc5ccccc5)[nH]4)c3c2)c1C [Example 81, N-benzyl-N-[2-(dimethylamino)ethyl]-2-(5-{5-[(ethylamino)methyl]-4-methylpyridin-3-yl}-1H-indazol-3-yl)-1H-imidazole-5-carboxamide] | < 50 | –
27 | CCNCc1cncc(-c2ccc3[nH]nc(-c4ncc(C(=O)N(C)C5CCN(Cc6ccccc6)C5)[nH]4)c3c2)c1C (centres unmarked) [Example 82, N-(1-benzylpyrrolidin-3-yl)-2-(5-{5-[(ethylamino)methyl]-4-methylpyridin-3-yl}-1H-indazol-3yl)-N-methyl-1H-imidazole-5-carboxamide] | < 50 | –
28 | CCNCc1cncc(-c2ccc3[nH]nc(-c4nc(C)c[nH]4)c3c2)c1C [Example 92, N-({4-methyl-5-[3-(4-methyl-1H-imidazol-2-yl)-1H-indazol-5-yl]pyridin-3-yl}methyl)ethanamine] | < 50 | –
